# Source: patent US5855916A, “Highly soluble multicomponent inclusion complexes containing a base type drug, an acid and a cyclodextrin” (priority 1993, dated 1999)
# Where two headings read alike, the source gives them in different places.
# Tests used:
# [1] = for Solubility ratio to FB: FB: drug alone; for Solubility ratio to FB: FB/AT: drug with tartaric acid; for Solubility ratio to FB: FB/AT/βCD / Water solubility, drug concentration F: FB/AT/βCD: drug/tartaric acid/β-CD multicomponent complex; for Water solubility, drug concentration F: FB/βCD: drug/β-cyclodextrin complex; for Water solubility, drug concentration F: FB/DIMEB: drug/DIMEB complex; for Water solubility, drug concentration F: FB/HPβ-CD: drug/HPβ-CD complex; for Water solubility, drug concentration F: FB/RAMEB: drug/RAMEB complex; for Water solubility, drug concentration F: FB/α-CD: drug/α-CD complex; for Water solubility, drug concentration F: FB/γ-CD: drug/γ-CD complex
# [2] = physchem; details: water
# [3] = Effect of some acids on the β-CD solubility; assay type: physicochemical
# Procedure: In a test tube 1000 mg of β-CD in 5 ml of a solution having different concentrations of an acid selected from tartaric, citric, lactic acid, were let to equilibrate for two days at 28*/-2° C. under stirring. The solution was filtered and β-CD concentration was determined by HPLC.
# [4] = simultaneous administration of citric acid; Tokumura et al.; cited from earlier work
# [5] = acidic conditions; Kikuchi et al.; cited from earlier work
# [6] = 1 mmol terfenadine, 15 ml water, 6 mmol acetic or 4 mmol formic acid
# [7] = drug concentration F: FB, Table 1, basic-type drug alone, room temperature
# [8] = drug concentration F: FB, Table 3, basic-type drug alone
# [9] = drug concentration F: FB/AT, Table 1, drug with tartaric acid, room temperature
# [10] = Table 1, drug tartrate in β-CD solution, room temperature
smiles,measurement,setting,value
O=c1[nH]c2ccccc2n1CCCN1CCC(n2c(=O)[nH]c3cc(Cl)ccc32)CC1 [Domperidone],Solubility ratio to FB: FB,[1]; Table 1,1 x
same,Solubility ratio to FB: FB/AT,[1]; Table 1,2000 x
same,Solubility ratio to FB: FB/AT/βCD,[1]; Table 1,5000 x
same,"Water solubility, drug concentration F: FB/AT/βCD","[1]; Table 1, room temperature",25000 µg/mL
same,Solubility ratio to FB: FB/βCD,"[1]; Table 1, drug/β-CD complex",4.4 x
same,"Water solubility, drug concentration F: FB/βCD","[1]; Table 1, room temperature",22 µg/mL
same,Solubility ratio to FB: FB/AT/DIMEB,[1]; Table 3,600 x
same,Solubility ratio to FB: FB/AT/HPβ-CD,[1]; Table 3,10000 x
same,Solubility ratio to FB: FB/AT/RAMEB,[1]; Table 3,6000 x
same,Solubility ratio to FB: FB/AT/α-CD,[1]; Table 3,5000 x
same,Solubility ratio to FB: FB/AT/γ-CD,[1]; Table 3,6000 x
same,Solubility ratio to FB: FB/DIMEB,[1]; Table 3,112 x
same,Solubility ratio to FB: FB/HPβ-CD,[1]; Table 3,32 x
same,Solubility ratio to FB: FB/RAMEB,[1]; Table 3,56 x
same,Solubility ratio to FB: FB/α-CD,[1]; Table 3,6.6 x
same,Solubility ratio to FB: FB/γ-CD,[1]; Table 3,8 x
same,"Water solubility, drug concentration F: FB/DIMEB",[1]; Table 3,560 µg/mL
same,"Water solubility, drug concentration F: FB/HPβ-CD",[1]; Table 3,160 µg/mL
same,"Water solubility, drug concentration F: FB/RAMEB",[1]; Table 3,280 µg/mL
same,"Water solubility, drug concentration F: FB/AT/DIMEB","[1]; Table 3, drug/tartaric acid/DIMEB multicomponent complex",30000 µg/mL
same,"Water solubility, drug concentration F: FB/AT/HPβ-CD","[1]; Table 3, drug/tartaric acid/HPβ-CD multicomponent complex",50000 µg/mL
same,"Water solubility, drug concentration F: FB/AT/RAMEB","[1]; Table 3, drug/tartaric acid/RAMEB multicomponent complex",30000 µg/mL
same,"Water solubility, drug concentration F: FB/AT/α-CD","[1]; Table 3, drug/tartaric acid/α-CD multicomponent complex",25000 µg/mL
same,"Water solubility, drug concentration F: FB/AT/γ-CD","[1]; Table 3, drug/tartaric acid/γ-CD multicomponent complex",30000 µg/mL
same,"Water solubility, drug concentration F: FB/α-CD",[1]; Table 3,33 µg/mL
same,"Water solubility, drug concentration F: FB/γ-CD",[1]; Table 3,40 µg/mL
same,solubility,[2]; [7],5 µg/mL
same,solubility,[2]; [8],5 µg/mL
same,solubility,[2]; [9],10000 µg/mL
CC(=O)N1CCN(c2ccc(OCC3COC(Cn4ccnc4)(c4ccc(Cl)cc4Cl)O3)cc2)CC1 (stereo not drawn) [Ketoconazole],"Water solubility, drug concentration F: FT/βCD",[1]; [10],21000 µg/mL
same,"Water solubility, drug concentration F: FB/AT/βCD","[1]; Table 1, room temperature",110000 µg/mL
same,"Water solubility, drug concentration F: FB/βCD","[1]; Table 1, room temperature",1240 µg/mL
same,solubility,[2]; [7],50 µg/mL
same,solubility,[2]; [9],21000 µg/mL
OC[C@H]1O[C@@H]2O[C@H]3[C@H](O)[C@@H](O)[C@@H](O[C@H]4[C@H](O)[C@@H](O)[C@@H](O[C@H]5[C@H](O)[C@@H](O)[C@@H](O[C@H]6[C@H](O)[C@@H](O)[C@@H](O[C@H]7[C@H](O)[C@@H](O)[C@@H](O[C@H]8[C@H](O)[C@@H](O)[C@@H](O[C@H]1[C@H](O)[C@H]2O)O[C@@H]8CO)O[C@@H]7CO)O[C@@H]6CO)O[C@@H]5CO)O[C@@H]4CO)O[C@@H]3CO [β-CD],β-CD concentration,"[3]; citric acid 0 mg/ml, 2880 min",18.3 mg/mL
same,β-CD concentration,"[3]; citric acid 9.6 mg/ml, 2880 min",34.1 mg/mL
same,β-CD concentration,"[3]; citric acid 19.2 mg/ml, 2880 min",47.9 mg/mL
same,β-CD concentration,[3]; citric acid 48.0 mg/ml,86.1 mg/mL
same,β-CD concentration,"[3]; citric acid 96.0 mg/ml, 2880 min",140.1 mg/mL
same,β-CD concentration,"[3]; citric acid 144.0 mg/ml, 2880 min",195.7 mg/mL
same,Effect of tartaric and citric acid on water solubility of β-CD,[3]; depending on acid concentration,remarkably enhance the water solubility
same,β-CD concentration,"[3]; lactic acid 0 mg/ml, 2880 min",18.3 mg/mL
same,β-CD concentration,"[3]; lactic acid 9.0 mg/ml, 2880 min",18.8 mg/mL
same,β-CD concentration,"[3]; lactic acid 22.5 mg/ml, 2880 min",24.2 mg/mL
same,β-CD concentration,"[3]; lactic acid 67.5 mg/ml, 2880 min",35.8 mg/mL
same,Effect of lactic acid on water solubility of β-CD,"[3]; lactic acid, compared with tartaric and citric acid",lower effect
same,Increase of the β-CD solubility in the binary system acid-β-CD,[3]; tartaric 11 and citric 17 mg/ml respectively,about 2 times
same,β-CD concentration,"[3]; tartaric acid 0 mg/ml, 2880 min",18.3 mg/mL
same,β-CD concentration,"[3]; tartaric acid 15.0 mg/ml, 2880 min",31.4 mg/mL
same,β-CD concentration,"[3]; tartaric acid 112.5 mg/ml, 2880 min",83.7 mg/mL
COc1ccc(CCN2CCC(Nc3nc4ccccc4n3Cc3ccc(F)cc3)CC2)cc1 [Astemizole],Solubility ratio to FB: FB,[1]; Table 1,1 x
same,Solubility ratio to FB: FT/βCD,"[1]; Table 1, drug tartrate in β-CD solution",1975 x
same,"Water solubility, drug concentration F: FT/βCD",[1]; [10],7900 µg/mL
same,Solubility ratio to FB: FB/AT,[1]; Table 1,817.5 x
same,Solubility ratio to FB: FB/AT/βCD,[1]; Table 1,22500 x
same,"Water solubility, drug concentration F: FB/AT/βCD","[1]; Table 1, room temperature",90000 µg/mL
same,Solubility ratio to FB: FB/βCD,"[1]; Table 1, drug/β-CD complex",16 x
same,"Water solubility, drug concentration F: FB/βCD","[1]; Table 1, room temperature",65 µg/mL
same,Solubility ratio to FB: FB/DIMEB,[1]; Table 3,303 x
same,Solubility ratio to FB: FB/HPβ-CD,[1]; Table 3,86 x
same,Solubility ratio to FB: FB/RAMEB,[1]; Table 3,275 x
same,Solubility ratio to FB: FB/α-CD,[1]; Table 3,6 x
same,Solubility ratio to FB: FB/γ-CD,[1]; Table 3,6.6 x
same,"Water solubility, drug concentration F: FB/DIMEB",[1]; Table 3,1245 µg/mL
same,"Water solubility, drug concentration F: FB/HPβ-CD",[1]; Table 3,353 µg/mL
same,"Water solubility, drug concentration F: FB/RAMEB",[1]; Table 3,1100 µg/mL
same,"Water solubility, drug concentration F: FB/α-CD",[1]; Table 3,24 µg/mL
same,"Water solubility, drug concentration F: FB/γ-CD",[1]; Table 3,27 µg/mL
same,solubility,[2]; [7],4 µg/mL
same,solubility,[2]; [8],4 µg/mL
same,solubility,[2]; [9],3270 µg/mL
C(=C\c1ccccc1)/CN1CCN(C(c2ccccc2)c2ccccc2)CC1 [Cinnarizine],Difference in bioavailability between cinnarizine + citric acid and its β-cyclodextrin complex + citric acid,[4],no significant difference
"CCCCCCNC(=O)n1cc(F)c(=O)[nH]c1=O [HCFU, 1-hexylcarbamoyl-5-fluorouracil]",Chemical stability,[5],chemically stable under acidic conditions
CCN(CC)CCOc1ccc(C(=C(Cl)c2ccccc2)c2ccccc2)cc1 [Clomifene],Solubility ratio to FB: FB,[1]; Table 2,1 x
same,Solubility ratio to FB: FC/βCD,"[1]; Table 2, drug citrate in β-CD solution",500 x
same,"Water solubility, drug concentration F: FC/βCD","[1]; Table 2, drug citrate in β-CD solution, room temperature",20000 µg/mL
same,Solubility ratio to FB: FB/AC,"[1]; Table 2, drug with citric acid",155 x
same,Solubility ratio to FB: FB/AC/βCD,"[1]; Table 2, drug/citric acid/β-CD multicomponent complex",1925 x
same,"Water solubility, drug concentration F: FB/AC/βCD","[1]; Table 2, drug/citric acid/β-CD multicomponent complex, room temperature",77000 µg/mL
same,Solubility ratio to FB: FB/CD,"[1]; Table 2, drug/β-CD complex",7 x
same,"Water solubility, drug concentration F: FB/CD","[1]; Table 2, drug/β-CD complex, room temperature",280 µg/mL
same,solubility,"[2]; drug concentration F: FB, Table 2, basic-type drug alone, room temperature",40 µg/mL
same,solubility,"[2]; drug concentration F: FB/AC, Table 2, drug with citric acid, room temperature",6200 µg/mL
CC(C)(C)c1ccc(C(O)CCCN2CCC(C(O)(c3ccccc3)c3ccccc3)CC2)cc1 (stereo not drawn) [Terfenadine],Dissolution attempt with acid without cyclodextrin,[6],not successful
